The values below are quoted from earlier work in patent US9085569B2, “1,2,4-oxadiazol derivatives, process for their preparation and use thereof as intermediates in the preparation of indolic alkaloids” (CONSIGLIO NAZIONALE DELLE RICERCHE, priority 2012, dated 2015).

In this data set the test system is HeLa cell line (uterine cervix cancer). The following applies: background statement.

As to `N=C(N)NCCCCCNc1noc(Cc2c[nH]c3ccccc23)n1` [phidianidine B], the cytotoxic activity result is “high cytotoxic activity”.
